Reference: US20240150841A1, “TAP63 REGULATED ONCOGENIC LONG NON-CODING RNAS” (H. LEE MOFFITT CANCER CENTER AND RESEARCH INSTITUTE, INC., priority 2021, published 2024)
Where a name gives a salt, the structure may show the parent alone.

What was measured:
[1] = system: CA1D cells; assay: Annexin V assay (apoptosis / cell death) time course in CA1D cells; assay type: cell-based, human
Experimental: Cells were plated at a density of 1×10^4 cells in 6 replicates in a 96-well plate. Three biological replicates were performed per each assay. To evaluate cell proliferation, the cells were labelled for 3 h with […] EdU (5′-ethynyl-2′-deoxyuridine) and stained using the Click-iT EdU microplate assay (Invitrogen). Apoptosis was monitored by incubating the cells with Annexin V-Alexa Fluor 488 (Essen BioScience) according to the manufacturer's instructions Images were captured and percent of either cell proliferation or apoptosis was quantified using a high-throughput immunofluorescence plate reader and accompanying software (IncuCyte, Essen Bioscience).
To see how effective the administration of an anti-cancer treatment alone or in combination with siRNA targeting TROLL2 and/or TROLL-3 was, CA1D cells were administered treatment and […] of the cells was measured by Annexin V staining. As shown in FIGS. 14A-14F cells with high levels of TROLLs were either limited in response to treatment or resistant.

[2] = system: TROLL-2; assay: qRT-PCR for TROLL-2 in triple negative breast cancer cells treated with drugs; assay type: cell-based, human; conditions: for expression of TROLL-2 following treatment: CA1D, BT-20, BT-549, MDA-MB-231, for at least 48 hours following treatment; for expression of TROLL-2 by the end of the 72 hour course: TNBC cell lines
Experimental: (§1) Total RNA was prepared using TRIzol reagent (Invitrogen)5. For gene expression analysis, complementary DNA was synthesized from 5 μg of total RNA using the SuperScript II First-Strand Synthesis Kit (Invitrogen) according to the manufacturer's protocol followed by qRT-PCR using the TaqMan® Universal PCR Master Mix (Applied Biosystems). qRT-PCR was performed using a QuantStudio 6 flex PCR machine (Applied Biosystems) and each qRT-PCR was performed in triplicate.
(§2) We wanted to examiner the effects anti-cancer treatments on the level of TROLLs overtime.

[3] = system: TROLL-3; assay: qRT-PCR for TROLL-3 in triple negative breast cancer cells treated with drugs; assay type: cell-based, human; conditions: for expression of TROLL-3 following treatment: CA1D, BT-20, BT-549, MDA-MB-231, for at least 48 hours following treatment; for expression of TROLL-3 by the end of the 72 hour course: TNBC cell lines
Experimental: as §1, §2

[4] = target: WDR26 (endogenous) (UniProt Q9H7D7)
UniProt Q9H7D7, sequence (Q9H7D7 whole entry): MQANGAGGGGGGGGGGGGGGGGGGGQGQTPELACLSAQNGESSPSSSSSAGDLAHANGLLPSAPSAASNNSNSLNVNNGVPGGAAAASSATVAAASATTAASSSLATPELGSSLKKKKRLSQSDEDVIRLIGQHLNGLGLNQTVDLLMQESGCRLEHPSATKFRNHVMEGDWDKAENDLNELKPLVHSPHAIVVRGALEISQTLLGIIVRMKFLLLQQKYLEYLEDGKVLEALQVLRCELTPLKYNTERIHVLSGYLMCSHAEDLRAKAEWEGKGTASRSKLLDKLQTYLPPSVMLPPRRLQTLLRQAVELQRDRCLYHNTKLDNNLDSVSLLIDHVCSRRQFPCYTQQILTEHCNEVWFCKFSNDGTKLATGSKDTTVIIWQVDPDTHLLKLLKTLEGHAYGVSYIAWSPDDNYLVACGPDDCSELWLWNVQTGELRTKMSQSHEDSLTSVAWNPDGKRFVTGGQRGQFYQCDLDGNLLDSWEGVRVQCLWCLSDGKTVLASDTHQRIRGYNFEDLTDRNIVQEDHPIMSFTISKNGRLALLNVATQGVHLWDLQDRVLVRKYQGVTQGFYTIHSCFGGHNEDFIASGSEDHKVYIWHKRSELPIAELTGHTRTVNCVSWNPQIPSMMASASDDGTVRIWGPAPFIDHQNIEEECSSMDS

| Molecule | response to drug in TNBC with high levels of TROLLs (in particular TROLL-2 and TROLL-3) [1] | response to drug in TNBC with low levels of TROLLs (in particular TROLL-2 and TROLL-3) [1] | expression of TROLL-2 following treatment [2] | expression of TROLL-2 by the end of the 72 hour course [2] | expression of TROLL-3 following treatment [3] | expression of TROLL-3 by the end of the 72 hour course [3] | AKT phosphorylation levels (pAKT S473, western blot) [4] |
| --- | --- | --- | --- | --- | --- | --- | --- |
| COc1cccc2c1C(=O)c1c(O)c3c(c(O)c1C2=O)C[C@@](O)(C(=O)CO)C[C@@H]3O[C@H]1C[C@H](N)[C@H](O)[C@H](C)O1 [Adriamycin, Doxorubicin Hydrochloride] | limited response | sensitivity | reduced expression | increased expression | reduced expression | increased expression |  |
| O=P1(N(CCCl)CCCl)NCCCO1 (stereo not shown) [cyclophosphamide] | resistance | partial response | reduced expression |  | reduced expression |  |  |
| CCCCCOC(=O)Nc1nc(=O)n([C@@H]2O[C@H](C)[C@@H](O)[C@H]2O)cc1F [capecitabine] | resistance | partial response | reduced expression | increased expression | reduced expression | increased expression |  |
| CC(=O)O[C@H]1C(=O)[C@@]2(C)[C@H]([C@H](OC(=O)c3ccccc3)[C@]3(O)C[C@H](OC(=O)[C@H](O)[C@@H](NC(=O)c4ccccc4)c4ccccc4)C(C)=C1C3(C)C)[C@]1(OC(C)=O)CO[C@@H]1C[C@@H]2O [paclitaxel] | limited response | sensitivity | reduced expression |  | reduced expression |  |  |
| AKT (endogenous) |  |  |  |  |  |  | a decrease in AKT phosphorylation levels |
| CC(=O)O[C@@]12CO[C@@H]1C[C@H](O)[C@@]1(C)C(=O)[C@H](O)C3=C(C)[C@@H](OC(=O)[C@H](O)[C@@H](NC(=O)OC(C)(C)C)c4ccccc4)C[C@@](O)([C@@H](OC(=O)c4ccccc4)[C@H]21)C3(C)C [docetaxel] | limited response | sensitivity | reduced expression |  | reduced expression |  |  |
| N.N.O=C([O-])C1(C(=O)[O-])CCC1.[Pt+2] [carboplatin] | resistance | partial response | reduced expression | increased expression | reduced expression | increased expression |  |
